The source of these data is patent publication US11149019B2, “Phenylpyridine derivative and pharmaceutical composition comprising the same” (Daewoong Pharmaceutical Co., Ltd., priority 2017, dated 2021).

One assay has as its target T1, ITK (Homo sapiens, UniProt Q08881).
T1 construct: purchased Promega Corporation
T1 sequence (Q08881 1-620): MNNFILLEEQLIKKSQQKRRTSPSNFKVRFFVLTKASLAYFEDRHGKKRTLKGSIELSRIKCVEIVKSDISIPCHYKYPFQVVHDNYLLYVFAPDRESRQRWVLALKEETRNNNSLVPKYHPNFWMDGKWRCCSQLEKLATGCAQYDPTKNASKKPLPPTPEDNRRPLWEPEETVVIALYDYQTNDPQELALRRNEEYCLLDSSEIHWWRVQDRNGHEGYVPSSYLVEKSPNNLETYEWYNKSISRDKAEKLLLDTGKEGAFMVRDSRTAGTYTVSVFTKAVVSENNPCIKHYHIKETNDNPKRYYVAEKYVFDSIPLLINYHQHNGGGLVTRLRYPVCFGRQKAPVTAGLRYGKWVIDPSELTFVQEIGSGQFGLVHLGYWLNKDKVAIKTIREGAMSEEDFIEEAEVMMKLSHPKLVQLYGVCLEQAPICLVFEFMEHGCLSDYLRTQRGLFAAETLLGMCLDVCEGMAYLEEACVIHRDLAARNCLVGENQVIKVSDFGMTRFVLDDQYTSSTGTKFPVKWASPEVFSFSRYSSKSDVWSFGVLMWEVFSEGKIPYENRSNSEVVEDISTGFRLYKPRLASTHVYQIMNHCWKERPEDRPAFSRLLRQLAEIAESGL
Briefly: ADP-Glo + ITK Kinase enzyme system kit, inhibitory activity against ITK. The settings on record: ITK enzyme 0.4 ng/ul, ATP final concentration of 25 ul, 30° C. for 1 hour, luminescence, duplicate. The class given is biochemical. The method, then: (§1) Inhibitory activities against BTK and ITK were measured for the compounds prepared in the above Examples as follows.
The inhibitory activity against ITK was evaluated using ‘ADP-Glo™+ITK Kinase enzyme system’ kit (Promega Corporation). In a white 96-well plate, 10 ul of ITK enzyme prepared so as to have a final concentration of 0.4 ng/ul was mixed with 5 ul of compounds having a final concentration of 1 uM in the case of evaluating a single concentration of compound and a concentration of 1000, 300, 100, 30, 10, 3, 1, 0.3, 0.1 and 0.03 nM in the case of IC50 evaluation, and then reacted at room temperature for 15 minutes. To the plate on which reactions were completed, 5 ul of substrate and 5 ul of ATP prepared so as to have a final concentration of […] added and then allowed to react at 30° C. for 1 hour. All wells of the plate were treated with 25 ul of ADP-Glo™ reagent and then allowed to react at 30° C. for 40 minutes. After that, all wells were treated with 50 ul of kinase detection buffer, and then allowed to react at 30° C. for 30 minutes under light shielding conditions. For the plate on which all reactions were completed, luminescence was measured and the results were calculated. Evaluation was carried out in duplicate, and negative control and positive control were calculated depending on whether or not the enzyme was added without treatment of the compound. The IC50 was calculated based on the calculated values.
(ADP-Glo first removes unused ATP, then detects ADP through luciferase.)

The target in another assay is T2, BTK (Homo sapiens, UniProt Q06187).
T2 construct: purchased Promega Corporation
T2 sequence (Q06187 whole entry): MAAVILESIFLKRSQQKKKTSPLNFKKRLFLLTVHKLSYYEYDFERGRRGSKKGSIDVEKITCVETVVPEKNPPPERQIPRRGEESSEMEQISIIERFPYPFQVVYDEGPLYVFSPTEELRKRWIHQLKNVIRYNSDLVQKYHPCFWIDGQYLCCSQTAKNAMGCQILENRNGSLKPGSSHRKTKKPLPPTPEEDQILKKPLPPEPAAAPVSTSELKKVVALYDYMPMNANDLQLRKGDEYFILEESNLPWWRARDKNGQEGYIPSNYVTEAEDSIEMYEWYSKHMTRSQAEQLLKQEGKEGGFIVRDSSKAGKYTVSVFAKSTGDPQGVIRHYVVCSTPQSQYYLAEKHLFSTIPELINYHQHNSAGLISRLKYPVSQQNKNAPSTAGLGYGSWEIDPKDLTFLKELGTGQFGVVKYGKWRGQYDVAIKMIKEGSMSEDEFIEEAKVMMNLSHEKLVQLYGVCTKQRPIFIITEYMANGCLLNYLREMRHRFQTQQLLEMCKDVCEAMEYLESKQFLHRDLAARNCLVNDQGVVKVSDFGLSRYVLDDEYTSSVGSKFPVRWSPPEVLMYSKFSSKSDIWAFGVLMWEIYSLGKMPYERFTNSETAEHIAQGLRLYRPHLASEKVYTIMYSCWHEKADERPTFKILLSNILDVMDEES
Briefly: ADP-Glo + BTK Kinase enzyme system kit, inhibitory activity against BTK. The class given is biochemical. The settings on record: BTK enzyme 1 ng/ul, ATP 10 μM, 30° C. for 1 hour, luminescence, duplicate. The method, then: as §1
The inhibitory activities against BTK were evaluated using ‘ADP-Glo™+BTK Kinase enzyme system’ kit (Promega Corporation). In a white 96-well plate, 10 ul of BTK enzyme prepared so as to have a final concentration of 1 ng/ul was mixed with 5 μl of compounds having a final concentration of […] the case of evaluating a single concentration of compound and a concentration of 1000, 300, 100, 30, 10, 3, 1, 0.3, 0.1 and 0.03 nM in the case of IC50 evaluation, and then reacted at room temperature for 15 minutes. 5 ul of substrate and 5 ul of ATP prepared so as to have a final concentration of 10 μM were added to the plate on which reactions were completed, and then allowed to react at 30° C. for 1 hour. All wells of the plate were treated with 25 ul of ADP-Glo™ reagent and allowed to react at 30° C. for 40 minutes. After that, all wells were treated with 50 ul of kinase detection buffer, and then reacted at 30° C. for 30 minutes under light shielding conditions. For the plate on which all reactions were completed, luminescence was measured and the results were calculated. Evaluation was carried out in duplicate, and negative control and positive control were calculated depending on whether or not the enzyme was added without treatment of the compound. The IC50 was calculated based on the calculated values.

Broadly, the pIC50 is −log10 of the IC50, conventionally taken in molar units.

pIC50: −log10 of the molar value.

For `C=CC(=O)Nc1ccc(-c2cc(Cc3ccccc3)cc(Nc3cc(C)[nH]n3)n2)cc1` [Compound 1, N-(4-(4-benzyl-6-(5-methyl-1H-pyrazol-3-ylamino)pyridin-2-yl)phenyl)acrylamide], the negative-log IC50 (pIC50) was 6.54 at ITK and under 6.00 on BTK.
For `C=CC(=O)Nc1cccc(-c2cc(Cc3ccccc3)cc(Nc3cc(C)[nH]n3)n2)c1` [Compound 2, N-(3-(4-benzyl-6-(5-methyl-1H-pyrazol-3-ylamino)pyridin-2-yl)phenyl)acrylamide] the same measures were 7.05 and 7.62.
Regarding `C#CC(=O)Nc1ccc(-c2cc(Cc3ccccc3)cc(Nc3cc(C)[nH]n3)n2)cc1` [Compound 3, N-(4-(4-benzyl-6-((5-methyl-1H-pyrazol-3-yl)amino)pyridin-2-yl)phenyl)propiolamide], the pIC50 at ITK was 7.63; on BTK, 7.34.
Turning to `C=CC(=O)Nc1cccc(-c2cc(Cc3ccccc3)cc(Nc3cc(C4CCCC4)[nH]n3)n2)c1` [Compound 4, N-(3-(4-benzyl-6-(5-cyclopentyl-1H-pyrazol-3-ylamino)pyridin-2-yl)phenyl)acrylamide], the pIC50 is 7.04 at ITK and 6.20 on BTK.
`C=CC(=O)Nc1cccc(-c2cc(Cc3ccccc3)cc(Nc3cc(-c4ccccc4)[nH]n3)n2)c1` [Compound 5, N-(3-(4-benzyl-6-((5-phenyl-1H-pyrazol-3-yl)amino)pyridin-2-yl)phenyl)acrylamide]: the values for the pIC50 at ITK and at BTK were 6.50 and 6.11, respectively.
As for `C#CC(=O)Nc1cccc(-c2cc(Cc3ccccc3)cc(Nc3cc(C)[nH]n3)n2)c1` [Compound 6, N-(3-(4-benzyl-6-((5-methyl-1H-pyrazol-3-yl)amino)pyridin-2-yl)phenyl)propiolamide], the pIC50 on ITK is under 6.30; on BTK, under 6.00.
With `C=CC(=O)Nc1cccc(-c2cc(Cc3ccccc3)cc(Nc3cc(-c4ccc(Oc5ccccc5)cc4)[nH]n3)n2)c1` [Compound 7, N-(3-(4-benzyl-6-((5-(4-phenoxyphenyl)-1H-pyrazol-3-yl)amino)pyridin-2-yl)phenyl)acrylamide], the pIC50 on ITK is under 6.30; at BTK, 6.91.
With `C=CC(=O)Nc1cccc(-c2cc(Cc3ccccc3)cc(Nc3cc(Cc4ccc(C)cc4)[nH]n3)n2)c1` [Compound 8], the pIC50 is 6.24 on ITK and 6.51 on BTK.
For `C=CC(=O)Nc1cccc(-c2cc(Cc3ccccc3)cc(Nc3cc(C(C)c4ccc(C)cc4)[nH]n3)n2)c1` (stereo not drawn) [Compound 9] the same measures were under 6.00 and under 6.00.
For `C=CC(=O)Nc1cccc(-c2cc(Cc3ccccc3)cc(Nc3cc(CCc4ccccc4)[nH]n3)n2)c1` [Compound 10, N-(3-(4-benzyl-6-((5-phenethyl-1H-pyrazol-3-yl)amino)pyridin-2-yl)phenyl)acrylamide] the same measures were 6.30 and 7.19.
For `C=CC(=O)Nc1cccc(-c2cc(Cc3ccccc3)cc(Nc3cc[nH]n3)n2)c1` [Compound 11] the same measures were 6.87 and 7.76.
On to `C=CC(=O)Nc1cccc(-c2cccc(Nc3cc(C)[nH]n3)n2)c1` [Compound 12], for which the pIC50 at ITK was 6.00; on BTK, 8.11.
For `C=CC(=O)Nc1cccc(-c2cccc(Nc3cc(C4CCCC4)[nH]n3)n2)c1` [Compound 13, N-(3-(6-((5-cyclopentyl-1H-pyrazol-3-yl)amino)pyridin-2-yl)phenyl)acrylamide] the same measures were 6.57 and 6.86.
For the molecule `C=CC(=O)Nc1cccc(-c2cccc(Nc3cc(-c4ccccc4)[nH]n3)n2)c1` [Compound 14, N-(3-(6-(5-phenyl-1H-pyrazol-3-ylamino)pyridin-2-yl)phenyl)acrylamide], the pIC50 at ITK was 6.40; at BTK, 6.46.
With `C=CC(=O)Nc1cccc(-c2cccc(Nc3cc[nH]n3)n2)c1` [Compound 15, N-(3-(6-(1H-pyrazol-3-ylamino)pyridin-2-yl)phenyl)acrylamide], the pIC50 on ITK is under 6.30; on BTK it was 7.74.
For `C=CC(=O)Nc1cccc(-c2cc(C)cc(Nc3cc(C)[nH]n3)n2)c1` [Compound 16, N-(3-(4-methyl-6-(5-methyl-1H-pyrazol-3-ylamino)pyridin-2-yl)phenyl)acrylamide] the same measures were 6.72 and 8.21.
For `C=CC(=O)Nc1cccc(-c2cc(C(F)(F)F)cc(Nc3cc(C)[nH]n3)n2)c1` [Compound 17], the pIC50 on ITK was 6.88; at BTK, 7.95.
Consider `C=CC(=O)Nc1cccc(-c2cc(C)cc(Nc3ccccn3)n2)c1` [Compound 18, N-(3-(4-methyl-6-(pyridin-2-ylamino)pyridin-2-yl)phenyl)acrylamide], for which the pIC50 at ITK was under 6.00; on BTK, 7.54.
For `C=CC(=O)Nc1cccc(-c2cc(CNC(C)C(C)(C)C)cc(Nc3cc(C)[nH]n3)n2)c1` (stereo not drawn) [Compound 19] the same measures were under 6.30 and 7.13.
Take `C=CC(=O)Nc1cccc(-c2cc(C(=O)NC(C)C(C)(C)C)cc(Nc3cc(C)[nH]n3)n2)c1` (stereo not drawn) [Compound 20, 2-(3-acrylamidophenyl)-N-(3,3-dimethylbutan-2-yl)-6-(5-methyl-1H-pyrazol-3-ylamino)isonicotinamide]: the pIC50 was 6.60 at ITK and 7.55 at BTK.
As to `C=CC(=O)Nc1cccc(-c2cc(C(=O)N(C)C)cc(Nc3cc(C)[nH]n3)n2)c1` [Compound 21, 2-(3-acrylamidophenyl)-N,N-dimethyl-6-((5-methyl-1H-pyrazol-3-yl)amino)isonicotinamide], the results for the pIC50 on ITK and on BTK were under 6.30 and 7.28, respectively.
With `C=CC(=O)Nc1cccc(-c2cc(CN3CCOCC3)cc(Nc3cc(C)[nH]n3)n2)c1` [Compound 22, N-(3-(6-((5-methyl-1H-pyrazol-3-yl)amino)-4-(morpholinomethyl)pyridin-2-yl)phenyl)acrylamide], the pIC50 on ITK is 7.11; at BTK, 8.21.
In the case of `C=CC(=O)Nc1cccc(-c2cc(-c3ccccc3)cc(Nc3cc(C)[nH]n3)n2)c1` [Compound 23, N-(3-(6-(5-methyl-1H-pyrazol-3-ylamino)-4-phenylpyridin-2-yl)phenyl)acrylamide], the figures for the negative-log IC50 (pIC50) on ITK and on BTK were 6.89 and 7.88, respectively.
Regarding `C=CC(=O)Nc1cccc(-c2cc(C)cc(Nc3cc(CC)[nH]n3)n2)c1` [Compound 24, N-(3-(6-(5-ethyl-1H-pyrazol-3-ylamino)-4-methylpyridin-2-yl)phenyl)acrylamide], the pIC50 is 6.80 on ITK and 7.96 at BTK.
For `C=CC(=O)Nc1cccc(-c2cc(C)cc(Nc3cc(C4CC4)[nH]n3)n2)c1` [Compound 25, N-(3-(6-((5-cyclopropyl-1H-pyrazol-3-yl)amino)-4-methylpyridin-2-yl)phenyl)acrylamide], the pIC50 on ITK was 7.23; on BTK, 8.07.
Regarding `C=CC(=O)Nc1cccc(-c2cc(CN3CCN(C(=O)C(C)C)CC3)cc(Nc3ncc(C)s3)n2)c1` [Compound 62, N (3(4((4-isobutyrylpiperazin-1-yl)methyl)-6-(5-methylthiazol-2-ylamino)pyridin-2-yl)phenyl)acrylamide], the negative logarithm of the IC50 (pIC50) on ITK was 8.09.
